Reference: article PMC12389155 (Pharmaceuticals, 2025)

How the values were obtained:
HCT 116 cells = assay: MTT cytotoxicity assay in HCT 116 colorectal cancer cells; assay type: cell-based; conditions: Homo sapiens, HCT 116, 48 h exposure, ± SEM, read-out: IC50 (cytotoxic activity)
Procedure: (§1) The colorectal cancer cell line HCT 116 (ATCC CCL-247) was grown in Roswell Park Memorial Institute 1640 Medium (RPMI, Biochrom Ltd., Cambridge, UK), and the breast cancer cell line MDA-MB-231 (ATCC HTB-26, American Type Culture Collection, Manassas, VA, USA) was maintained in Dulbecco’s Modified Eagle Medium (DMEM, Biochrom Ltd., Cambridge, UK) supplemented with 10% (v/v) fetal bovine serum (FBS, Biochrom Ltd., Cambridge, UK) and 1% (v/v) penicillin-streptomycin (p/s, Biochrom) on tissue-culture-treated flasks. The human fibroblast BJ-5ta cell line (ATCC CRL-2522) was grown in a 4:1 proportion of DMEM:Medium 199 (PAN-Biotech GmbH, Aidenbach, Germany), supplemented with 10% (v/v) FBS, 1% (v/v) p/s, and 0.01% (v/v) hygromycin B (Sigma-Aldrich, St. Louis, MO, USA). All cell lines were authenticated and tested for mycoplasma contamination. Cells were incubated at 37 °C with 5% CO2 and 95% relative humidity. […] Cell counts were determined using a hemocytometer. […]
(§2) After the incubation period, the culture media was discarded from each well, and 100 µL (0.5 mg/mL) was added. […] Cell viability was determined based on the absorbance measured at 570 nm using a microplate reader (Cytation 3, BioTek Instruments, Winooski, VT, USA). The absorbance of untreated cells or DMSO-treated cells was considered at 100% cell viability. […]

MDA-MB-231 cells = assay: MTT cytotoxicity assay in MDA-MB-231 triple-negative breast cancer cells; assay type: cell-based; conditions: Homo sapiens, MDA-MB-231, 48 h exposure, ± SEM, read-out: IC50 (cytotoxic activity)
Procedure: as §1, §2

COR-L23 cells = test system: COR-L23 cells; design: method as in PMID 21366300; conditions: COR-L23 lung cancer cells; read-out: IC50 nucleoside-nucleobase transport inhibition; cited from earlier work
Aqueous solubility = assay type: physicochemical
EGFR = test system: EGFR; design: method as in PMID 22753156, PMID 15199094; conditions: cited from earlier work

Row | SMILES | IC50 (HCT 116 cells) [nM] | IC50 (MDA-MB-231 cells) [nM] | IC50 (COR-L23 cells) [nM] | also measured
1 | O=c1[nH]cc(F)c(=O)[nH]1 [5-FU, 5-Fluorouracil] | 10400 ± 680 | 183000 ± 17100 |  | 
2 | COc1ccc(CCc2nc(NCC(C)O)nc3c(NCc4ccc(OC)c(OC)c4)nc(CCC(C)OC(=O)Nc4ccccc4)nc23)cc1OC (stereo not drawn) [IV] |  |  | 8 | 
3 | O=C(NNc1ncnc2c(Nc3ccc(OC(F)(F)F)cc3)ncnc12)c1ccccc1 [PP, N’-(8-((4-(Trifluoromethoxy)phenyl)amino)pyrimido[5,4-d]pyrimidin-4-yl)benzohydrazide] | 2040 ± 450 | 5240 ± 240 |  | Solubility in aqueous medium (Aqueous solubility): poor solubility in aqueous medium
4 | COc1ccc(NC(=O)OC(C)CCc2nc(NCc3ccc(OC)c(OC)c3)c3nc(NCC(C)OC(=O)CCC(=O)O)nc(CCc4ccc(OC)c(OC)c4)c3n2)cc1 (stereo not drawn) [VI] |  |  | 7 | 
5 | COc1ccc(NC(=O)OC(C)CCc2nc(NCc3ccc(OC)c(OC)c3)c3nc(NCC(C)O)nc(CCc4ccc(OC)c(OC)c4)c3n2)cc1 (stereo not drawn) [V] |  |  | 4 | 
6 | CCN(CC)CC1CCN(c2ncc3ncnc(Nc4ccc(F)c(Cl)c4)c3n2)CC1 [compound III] |  |  |  | Activity as EGFR tyrosine kinase inhibitors (EGFR): nanomolar range
